In patent US20240131032A1, “AN ACTIVITY-GUIDED MAP OF ELECTROPHILE-CYSTEINE INTERACTIONS IN PRIMARY HUMAN IMMUNE CELLS” (The Scripps Research Institute, priority 2019, published 2024):

What was measured:
BIRC2 = BIRC2 (Homo sapiens, UniProt Q13490, C45A); assay: Western blot of BIRC2 content in human T cells; details: EV-3 10 μM, AT-406 1 μM, 24 h; transfected primary human T cells
Protocol: All treatments were for 24 h.
All treatments were for 24 h. […] Plasmids expressing FLAG epitope-tagged versions of wild-type (WT) or the indicated cysteine-to-alanine mutants of BIRC2 (C45A) and BIRC3 (C28A) were co-transfected into primary human T cells with mCherry-expressing plasmid to control for transfection efficiency for 24 h. Cells were then treated with DMSO, EV-3 (10 μM), or AT-406 (1 μM) for 24 h and analyzed by anti-FLAG western blotting. […] (G) Quantitation of western blot data, where protein band intensity calculations were made using ImageJ software and represent the mean percentage of DMSO treated control±SEM; n=3 independent experiments per group. *p<0.05; **p<0.01 by two-tailed unpaired t test with Welch's correction compared to respective DMSO treatments.
Western blot analysis was performed on freshly isolated or expanded T cells. For Western blot protein degradation analysis, primary human T cells (2×10^7 cells/treatment) were re-suspended in RPMI media at 2×10^6 cells/mL and treated with the compounds or DMSO at 37° C. in a CO2 containing incubator for 24 h (or otherwise indicated times).

primary human T cells [1] = assay: Multidimensional screen for inhibition of T cell activation (IL-2, IFN-γ secretion, CD25, CD69 expression); format: cell-based; details: anti-CD3/anti-CD28-stimulated T cells
Protocol: FIG. 4A-4D is an overview of a multidimensional screen to identify elaborated electrophilic compounds that suppress T cell activation. FIG. 4A is a workflow for T-cell activation screen. Primary human T cells were treated with a focused library of elaborated electrophilic compounds (10 μM, structures of compounds in FIG. 12), a positive control immunosuppressive compound (DMF, 50 μM), or DMSO under TCR-stimulating conditions in 96-well plates pre-coated with 5 μg/mL αCD3 and 2 μg/mL αCD28 for 24 h. T cell activation was measured using a combination of markers, including IL2 and IFNγ secretion, as well as surface expression of CD25 and CD69. T cell viability was measured by flow cytometry using a Fixable Near-IR LIVE/DEAD™ Cell Stain. Compounds were considered as active hits if they reduced IL2 cytokine production by >65% with <15% reduction in T cell viability in the cytotoxicity assay compared to DMSO control. […]
The levels of secreted IL2, IFNγ and TNFα after incubating T cells in the presence of DMSO or electrophilic compounds under TCR-stimulating conditions were measured using DuoSet ELISA cytokine kits (R&D Systems) in clear microplates (R&D Systems) according to manufacturer's instructions and read using a CLARIOstar (BMG Labtech) plate reader (450 nm). All cytokine concentrations were calculated according to the standard curve generated for each experiment.

primary human T cells [2] = assay: T cell viability by flow cytometry (near-IR LIVE/DEAD stain); format: cell-based; details: concentration-dependent profiles, at <20 μM
Protocol: FIG. 4A-4D is an overview of a multidimensional screen to identify elaborated electrophilic compounds that suppress T cell activation. FIG. 4A is a workflow for T-cell activation screen. Primary human T cells were treated with a focused library of elaborated electrophilic compounds (10 μM, structures of compounds in FIG. 12), a positive control immunosuppressive compound (DMF, 50 μM), or DMSO under TCR-stimulating conditions in 96-well plates pre-coated with 5 μg/mL αCD3 and 2 μg/mL αCD28 for 24 h. T cell activation was measured using a combination of markers, including IL2 and IFNγ secretion, as well as surface expression of CD25 and CD69. T cell viability was measured by flow cytometry using a Fixable Near-IR LIVE/DEAD™ Cell Stain. Compounds were considered as active hits if they reduced IL2 cytokine production by >65% with <15% reduction in T cell viability in the cytotoxicity assay compared to DMSO control. […] FIG. 4C are structures of active hit compounds selected for follow-up studies, including two acrylamides (BPK-21, BPK-25), two chloroacetamides (EV-3, EV-93) and DMF as a positive control. FIG. 4D are line graphs showing T cell activation and cytotoxicity profiles for selected hit compounds.
Non-tissue culture treated 96-well plates were pre-coated with αCD3 (5 μg/mL) and αCD28 antibodies (2 μg/mL) in PBS (100 μL/well) and left at 4° C. overnight. Freshly isolated T cells were re-suspended in RPMI media supplemented with 10% FBS, L-glutamine (2 mM), penicillin (100 U/mL), and streptomycin ([…]) at 2×10^6 cells/mL. Compound stocks (200×) in DMSO were diluted to 2× stocks in the working RPMI media in another 96-well plate. The pre-coated 96-well treatment plates were washed with PBS ([…]), T cells (100 μL/well, 2×10^5 cells/well) were then added to the wells, followed by the addition of 2× compound stocks in RPMI media (100 μL). The outer wells of the plates were filled with media without cells to avoid the edge effect in the assay. The treatment was done overnight (24 h) at 37° C. in a 5% CO2 containing incubator. Following the treatment, the cells were transferred to a U-bottom 96-well plate and harvested by centrifugation (600 g, 3 min, 4° C.). The supernatants were kept and stored at −80° C. for further cytokine analysis, while the cells were washed with PBS (2×150 μL) prior to staining for flow cytometry analysis.
Following the PBS washes, the cells were stained with fixable near-IR LIVE/DEAD cell stain (Invitrogen) according to manufacturer's instructions. Briefly, one vial of near-IR LIVE/DEAD dye was resuspended in DMSO (50 μL) and diluted with PBS (1:1000). The diluted stain was added to each well (200 μL) and the cells were incubated for 30 min at room temperature in the dark. After this time, the cells were pelleted (600 g, 3 min, 4° C.), washed once with PBS (200 μL/well) and incubated with a freshly made cocktail of antibodies for the appropriate cell surface markers diluted in PBS containing 2% FBS (1:400 antibody dilution).

MYD88 = biological target: T1, MYD88 (Homo sapiens, UniProt Q99836); assay: isoTOP-ABPP and TMT-ABPP cysteine engagement, MYD88; format: binding; details: scout fragments
T1 construct: endogenous in cells
Protocol: Activated or expanded T cells were re-suspended in RPMI media supplemented with 10% FBS, L-glutamine (2 mM), penicillin (100 U/mL), and streptomycin (100 μg/mL) at 2×10^6 cells/mL. The compounds were added to cells as 1000×DMSO stocks and mixed well with the media by pipetting up and down after addition. The cells were kept at 37° C. in 5% CO2 containing incubators for 3 h (or otherwise specified times), then pelleted by centrifugation (524 g, 5 min, 4° C.), washed with cold PBS (10 mL) and transferred to Eppendorf tubes (1 mL PBS). The cells were pelleted again (524 g, 5 min, 4° C.), flash-frozen, and kept at −80° C. until further analysis.
Activated or expanded primary human T cells were re-suspended in RPMI (1×10^6 cells/mL) containing 10% fetal bovine serum (FBS), penicillin (100 U/mL), streptomycin ([…]), and L-glutamine (2 mM). The cells were treated with DMSO or compounds for 3 h, pelleted (524 g, 5 min), washed with PBS, and lysed by sonication (2×8 pulses). Soluble and particulate proteomic fractions were separated by ultracentrifugation (100,000 g, 45 min), and protein concentration was normalized to 1.7 mg/mL using a standard DC protein assay (Bio-Rad). The resulting proteomes were analyzed by competitive isotopic Tandem Orthogonal Proteolysis Activity-Based Protein Profiling (isoTOP-ABPP). […]
The heavy/light isoTOP-ABPP ratios (R values) for each unique peptide (DMSO/compound treated) were quantified with in-house CIMAGE software (Weerapana et al., 2010) using default parameters (3 MS1 acquisitions per peak and signal to noise threshold set to 2.5). Site-specific engagement of cysteine residues was assessed by blockade of IA-alkyne probe labeling. […] Ratios for unique peptide sequences were calculated for each experiment; overlapping peptides with the same modified cysteine (e.g., different charge states, elution times or tryptic termini) were grouped together and the median ratio was reported as the final ratio (R). […]

PDCD1 = biological target: T2, PDCD1 (Homo sapiens, UniProt Q15116); assay: TMT-ABPP scout fragment sensitivity, PDCD1; format: binding; details: activated T cells; 500 μM, 1 h
T2 construct: endogenous in cells
Description: FIG. 2A-2J provides an overview of chemical proteomic mapping of fragment electrophile-cysteine interactions and reactivity changes in human T cells. […] This protocol was applied to both control and activated T cells. FIG. 2B are structures of scout fragments KB02 and KB05. FIG. 2C-FIG. 2D are pie chart representations of cysteines (C) and proteins (D) liganded with scout fragments. Results were obtained by combining soluble and particulate proteomic fraction data for KB02 and KB05 treatments (500 μM, 1 h) of both control and activated T cells. R-values within each experimental treatment group were derived from 3-5 independent isoTOP-ABPP experiments and 4 independent TMT-ABPP experiments (6 TMT channels). A cysteine was required to be quantified in at least two experiments for each compound treatment or proteomic fraction group to be reported. FIG. 2E are bar graphs showing the total number (left) and percentage (right) of liganded cysteines per total number of cysteines quantified across the indicated reactivity ranges, where cysteine reactivity was determined by isoTOP-ABPP experiments performed with different concentrations of the IA-alkyne probe (10 and 100 μM), as described previously (Weerapana et al., 2010). FIG. 2F are bar graphs showing the total number (left) and percentage (right) of liganded proteins with expression or reactivity changes in activated T cells. […]

T1 sequence (Q99836 whole entry, the tested form may be a part): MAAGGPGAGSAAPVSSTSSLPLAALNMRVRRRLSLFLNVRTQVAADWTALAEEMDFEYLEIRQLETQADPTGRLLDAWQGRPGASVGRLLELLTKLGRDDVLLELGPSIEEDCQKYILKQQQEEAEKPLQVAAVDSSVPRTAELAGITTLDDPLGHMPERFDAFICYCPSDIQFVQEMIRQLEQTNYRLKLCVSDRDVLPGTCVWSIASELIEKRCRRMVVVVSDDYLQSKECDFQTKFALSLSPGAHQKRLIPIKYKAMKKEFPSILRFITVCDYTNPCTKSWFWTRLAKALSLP
T2 sequence (Q15116 25-288): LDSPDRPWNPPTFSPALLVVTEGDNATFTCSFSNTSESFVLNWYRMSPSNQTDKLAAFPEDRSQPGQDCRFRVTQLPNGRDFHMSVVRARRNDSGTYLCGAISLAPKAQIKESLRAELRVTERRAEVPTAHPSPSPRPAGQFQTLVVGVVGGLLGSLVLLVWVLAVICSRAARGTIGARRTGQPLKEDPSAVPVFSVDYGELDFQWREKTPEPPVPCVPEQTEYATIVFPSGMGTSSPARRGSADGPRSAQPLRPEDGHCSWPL
Sequence of BIRC2 (Q13490 whole entry C45A): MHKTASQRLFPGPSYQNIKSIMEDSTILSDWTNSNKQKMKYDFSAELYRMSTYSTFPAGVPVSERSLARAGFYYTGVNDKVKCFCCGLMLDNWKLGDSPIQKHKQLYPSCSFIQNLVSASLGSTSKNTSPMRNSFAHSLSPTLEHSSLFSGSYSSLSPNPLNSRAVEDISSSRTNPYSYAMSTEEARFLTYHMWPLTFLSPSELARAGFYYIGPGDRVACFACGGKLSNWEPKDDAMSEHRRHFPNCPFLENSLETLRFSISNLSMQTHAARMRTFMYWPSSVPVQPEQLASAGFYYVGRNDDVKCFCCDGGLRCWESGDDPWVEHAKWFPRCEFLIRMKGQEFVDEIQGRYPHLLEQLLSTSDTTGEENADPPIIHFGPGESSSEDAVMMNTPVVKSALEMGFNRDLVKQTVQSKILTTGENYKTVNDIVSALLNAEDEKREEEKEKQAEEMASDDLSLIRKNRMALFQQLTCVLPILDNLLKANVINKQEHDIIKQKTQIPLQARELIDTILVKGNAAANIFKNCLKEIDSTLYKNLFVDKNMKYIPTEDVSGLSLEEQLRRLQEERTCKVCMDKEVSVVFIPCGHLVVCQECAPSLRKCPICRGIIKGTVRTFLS

CN[C@@H](C)C(=O)N[C@H]1CN(C(=O)CC(C)C)CC[C@H]2CC[C@@H](C(=O)NC(c3ccccc3)c3ccccc3)N2C1=O [AT406]
FLAG-tagged BIRC2 C45A mutant content (BIRC2): still promotes the degradation

CCCCS(=N)(=O)CCC(N)C(=O)O (stereo not drawn) [BSO, buthionine sulphoximine]
effect on T cell activation (primary human T cells [1]): did not affect T cell activation

O=C(c1cccc(N2CCOCC2)c1)N1CCC(N(C(=O)CCl)c2ccccc2)C(Cc2ccccc2)C1 (stereo not drawn) [EV-93]
cytotoxicity (primary human T cells [2]): negligible cytotoxicity

COc1ccc2c(c1)CCCN2C(=O)CCl [KB02]
modification of MYD88 at either C274 or C280 (tryptic peptide 270-282) (MYD88): covalently modified
sensitivity of C93 of PDCD1 (PDCD1): KB02-sensitivity

C=CC(=O)N(c1ccccc1)c1ccc(Br)cc1 [KB05]
modification of MYD88 at either C274 or C280 (tryptic peptide 270-282) (MYD88): covalently modified
